Where a name gives a salt, the structure may show the parent alone.
biological target: MetAP-2 (Homo sapiens, UniProt P50579); experiment: MetAP-2 activity measurement (coupled enzymatic reactions, substrate Met-Arg-Ser, photometric at 450 nm); type: biochemical; conditions: read-out: IC50 enzyme (Inhibition of MetAP-2)
How it was run: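 Human MetAP-2 cleaves Met-Arg-Ser; the freed methionine is oxidized by L-amino acid oxidase, and the resulting H2O2 drives peroxidase oxidation of dianisidine, read continuously at 450 nm. Activity is taken as the slope in the visually linear region.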

Chain of MetAP-2 (P50579 whole entry, species assumed): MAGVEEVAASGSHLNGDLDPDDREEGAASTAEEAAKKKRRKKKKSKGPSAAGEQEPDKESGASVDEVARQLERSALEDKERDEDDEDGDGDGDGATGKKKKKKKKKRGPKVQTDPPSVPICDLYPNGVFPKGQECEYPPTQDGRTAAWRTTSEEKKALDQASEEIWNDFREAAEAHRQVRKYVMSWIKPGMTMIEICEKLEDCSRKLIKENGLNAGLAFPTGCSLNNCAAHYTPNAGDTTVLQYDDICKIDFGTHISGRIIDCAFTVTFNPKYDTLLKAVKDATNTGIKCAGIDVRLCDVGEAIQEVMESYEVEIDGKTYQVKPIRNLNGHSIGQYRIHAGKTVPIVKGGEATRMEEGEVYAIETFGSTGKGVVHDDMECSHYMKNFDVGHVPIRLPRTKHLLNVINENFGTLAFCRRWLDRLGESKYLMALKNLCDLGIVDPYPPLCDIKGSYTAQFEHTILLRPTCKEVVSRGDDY

SMILES	IC50 [µM]
c1cc(OC[C@H]2CCCN2c2ncnc3[nH]cnc23)c2cc(N3CCOCC3)ccc2c1 [A146, 6-[(R)-2-(7-Morpholin-4-ylnaphthalen-1-yl-oxymethyl)pyrrolidin-1-yl]-9H-purine]	0.01 to 1
Oc1ccc(OC[C@H]2CCCN2c2ncnc3[nH]c(F)nc23)c2ccccc12 [A147, 4-[(R)-1-(8-Fluoro-9H-purin-6-yl)pyrrolidin-2-yl-methoxy]naphthalen-1-ol]	1 to 10
c1ccc2c(OC[C@H]3CCCN3c3ncnc4[nH]cnc34)cncc2c1 [A148, 4-[(R)-1-(9H-Purin-6-yl)pyrrolidin-2-yl-methoxy]isoquinoline]	0.01 to 1
O=C(NCCN1CCOCC1)c1cc(OC[C@H]2CCCN2c2ncnc3[nH]cnc23)c2ccccc2n1 [A149, N-(2-Morpholin-4-ylethyl)-4-[(R)-1-(9H-purin-6-yl)pyrrolidin-2-ylmethoxy]quinoline-2-carboxamide]	> 10
O=C(NCCCN1CCOCC1)c1cc(OC[C@H]2CCCN2c2ncnc3[nH]cnc23)c2ccccc2n1 [A150, N-(3-Morpholin-4-ylpropyl)-4-[(R)-1-(9H-purin-6-yl)pyrrolidin-2-ylmethoxy]quinoline-2-carboxamide]	0.01 to 1
COC(=O)c1c(OC[C@H]2CCCN2c2ncnc3[nH]cnc23)c2cc(F)ccc2n1C [A151, Methyl 5-fluoro-1-methyl-3-[(R)-1-(9H-purin-6-yl)pyrrolidin-2-ylmethoxy]-1H-indole-2-carboxylate]	0.01 to 1
COc1ccc(CCOc2cc3c(OC[C@H]4CCCN4c4ncnc5[nH]cnc45)ccc(CCc4ccc(OC)cc4)c3cc2C(=O)N(C)C)cc1 [A152, N,N-Dimethyl-3-[2-(4-methoxyphenyl)ethoxy]-8-[2-(4-methoxyphenyl)ethyl]-5-[(R)-1-(9H-purin-6-yl)pyrrolidin-2-ylmethoxy]naphthalene-2-carboxamide]	> 10
Clc1ccc(-n2ccc(OC[C@H]3CCCN3c3ncnc4[nH]cnc34)n2)c(Cl)c1 [A153, 6-{(R)-2-[1-(2,4-Dichlorophenyl)-1H-pyrazol-3-yloxymethyl]pyrrolidin-1-yl}-9H-purine]	0.01 to 1
CCNC(=O)Nc1ccc2cccc(OC[C@H]3CCCN3c3ncnc4[nH]cnc34)c2c1 [A154, 1-Ethyl-3-{8-[(R)-1-(9H-purin-6-yi)pyrrolidin-2-yl-methoxy]naphthalen-2-yl}urea]	1 to 10
CCNC(=O)N1CCN(c2ccc3cccc(OC[C@H]4CCCN4c4ncnc5[nH]cnc45)c3c2)CC1 [A155, N-Ethyl-4-{8-[(R)-1-(9H-purin-6-yl)pyrrolidin-2-yl-methoxy]naphthalen-2-yl}piperazine-1-carboxamide]	1 to 10
O=C(NCc1ccco1)N1CCN(c2ccc3cccc(OC[C@H]4CCCN4c4ncnc5[nH]cnc45)c3c2)CC1 [A156, N-(Furan-2-ylmethyl)-4-{8-[(R)-1-(9H-purin-6-yl)-pyrrolidin-2-ylmethoxy]naphthalen-2-yl}-piperazine-1-carboxamide]	1 to 10
CCOC(=O)CNC(=O)N1CCN(c2ccc3cccc(OC[C@H]4CCCN4c4ncnc5[nH]cnc45)c3c2)CC1 [A157, Ethyl [(4-{8-[(R)-1-(9H-purin-6-yl)pyrrolidin-2-yl-methoxy]naphthalen-2-yl}piperazine-1-carbonyl)amino]acetate]	1 to 10
O=C(O)CNC(=O)N1CCN(c2ccc3cccc(OC[C@H]4CCCN4c4ncnc5[nH]cnc45)c3c2)CC1 [A158, [(4-{8-[(R)-1-(9H-Purin-6-yl)pyrrolidin-2-yl-methoxy]naphthalen-2-yl}piperazine-1-carbonyl)amino]acetic acid]	> 10
O=C(NCc1ccco1)Nc1ccc2cccc(OC[C@H]3CCCN3c3ncnc4[nH]cnc34)c2c1 [A159, 1-Furan-2-ylmethyl-3-{8-[(R)-1-(9H-purin-6-yl)-pyrrolidin-2-ylmethoxy]naphthalen-2-yl}urea]	1 to 10
COC(=O)CC[C@H](NC(=O)OCc1ccccc1)C(=O)Nc1ccc2cccc(OC[C@H]3CCCN3c3ncnc4[nH]cnc34)c2c1 [A160, Methyl (S)-4-benzyloxycarbonylamino-4-{8-[(R)-1-(9H-purin-6-yl)pyrrolidin-2-ylmethoxy]-naphthalen-2-ylcarbamoyl}butyrate]	> 10
CC(C)(C)OC(=O)N[C@@H](CCC(N)=O)C(=O)Nc1ccc2cccc(OC[C@H]3CCCN3c3ncnc4[nH]cnc34)c2c1 [A161, tert-Butyl ((S)-3-carbamoyl-1-{8-[(R)-1-(9H-purin-6-yl)pyrrolidin-2-ylmethoxy]naphthalen-2-ylcarbamoyl}propyl)carbamate]	1 to 10
CC(C)(C)OC(=O)N[C@H](CC(N)=O)C(=O)Nc1ccc2cccc(OC[C@H]3CCCN3c3ncnc4[nH]cnc34)c2c1 [A162, tert-Butyl ((R)-2-carbamoyl-1-{8-[(R)-1-(9H-purin-6-yl)pyrrolidin-2-ylmethoxy]naphthalen-2-ylcarbamoyl}ethyl)carbamate]	1 to 10

SMILES	IC50 [µM]
CC(C)(C)OC(=O)N[C@@H](Cc1c[nH]cn1)C(=O)Nc1ccc2cccc(OC[C@H]3CCCN3c3ncnc4[nH]cnc34)c2c1 [A163, tert-Butyl ((S)-2-(1H-imidazol-4-yl)-1-{8-[(R)-1-(9H-purin-6-yl)pyrrolidin-2-ylmethoxy]-naphthalen-2-ylcarbamoyl}ethyl)carbamate]	1 to 10
N[C@@H](Cc1c[nH]cn1)C(=O)Nc1ccc2cccc(OC[C@H]3CCCN3c3ncnc4[nH]cnc34)c2c1 [A164, (S)-2-Amino-3-(1H-imidazol-4-yl)-N-{8-[(R)-1-(9H-purin-6-yl)pyrrolidin-2-ylmethoxy]-naphthalen-2-yl}propionamide * HCl]	1 to 10
NC(=O)CC[C@H](N)C(=O)Nc1ccc2cccc(OC[C@H]3CCCN3c3ncnc4[nH]cnc34)c2c1 [A165, N-(1-({8-[(R)-1-(9H-Purin-6-yl)pyrrolidin-2-yl-methoxy]naphthalen-2-yl})-(S)-2-aminopentan-5-amide * HCl]	1 to 10
O=CN1CCN(c2ccc3cccc(OC[C@H]4CCCN4c4ncnc5[nH]cnc45)c3c2)CC1 [A166, 4-{8-[(R)-1-(9H-Purin-6-yl)pyrrolidin-2-ylm-ethoxy]naphthalen-2-yl}piperazine-1-carbaldehyde]	0.01 to 1
CC(C)(C)OC(=O)NCC(=O)N1CCN(c2ccc3cccc(OC[C@H]4CCCN4c4ncnc5[nH]cnc45)c3c2)CC1 [A167, tert-Butyl [2-oxo-2-(4-{8-[(R)-1-(9H-purin-6-yl)-pyrrolidin-2-ylmethoxy]naphthalen-2-yl}-piperazin-1-yl)ethyl]carbamate]	1 to 10
NCC(=O)N1CCN(c2ccc3cccc(OC[C@H]4CCCN4c4ncnc5[nH]cnc45)c3c2)CC1 [A168, 2-Amino-1-(4-{8-[(R)-1-(9H-purin-6-yl)pyrrolidin-2-ylmethoxy]naphthalen-2-yl}piperazin-1-yl)-ethanone]	1 to 10
OC1CCN(C2CCc3cccc(OC[C@H]4CCCN4c4ncnc5[nH]cnc45)c3C2)C1 (stereo partly drawn) [A169, 1-{8-[(R)-1-(9H-Purin-6-yl)pyrrolidin-2-yl-methoxy]-1,2,3,4-tetrahydronaphthalen-2-yl}pyrrolidin-3-ol]	1 to 10
OC1CN(C2CCc3cccc(OC[C@H]4CCCN4c4ncnc5[nH]cnc45)c3C2)C1 (stereo partly drawn) [A170, 1-{8-[(R)-1-(9H-Purin-6-yl)pyrrolidin-2-yl-methoxy]-1,2,3,4-tetrahydronaphthalen-2-yl}azetidin-3-ol]	0.01 to 1
CC(=O)NC1CCN(C2CCc3cccc(OC[C@H]4CCCN4c4ncnc5[nH]cnc45)c3C2)C1 (stereo partly drawn) [A171, N-(1-{8-[(R)-1-(9H-Purin-6-yl)pyrrolidin-2-yl-methoxy]-1,2,3,4-tetrahydronaphthalen-2-yl}pyrrolidin-3-yl)acetamide]	1 to 10
c1ccc2c(NCCN3CCOCC3)ncc(OC[C@H]3CCCN3c3ncnc4[nH]cnc34)c2c1 [A172, (2-Morpholin-4-ylethyl)-{4-[(R)-1-(9H-purin-6-yl)-pyrrolidin-2-ylmethoxy]isoquinolin-1-yl}amine]	1 to 10
CN(C)C(=O)CC1CCc2c(OC[C@H]3CCCN3c3ncnc4[nH]cnc34)cccc2C1=O (stereo partly drawn) [A173, N,N-Dimethyl-2-{1-oxo-5-[(R)-1-(9H-purin-6-yl)-pyrrolidin-2-ylmethoxy]-1,2,3,4-tetrahydro-naphthalen-2-yl}acetamide]	0.01 to 1
CN(C)C(=O)C[C@@H]1CCc2c(OC[C@H]3CCCN3c3ncnc4[nH]cnc34)cccc2C1=O [A174, N,N-Dimethyl-2-{(S)-1-oxo-5-[(R)-1-(9H-purin-6-yl)pyrrolidin-2-ylmethoxy]-1,2,3,4-tetrahydro-naphthalen-2-yl}acetamide]	0.01 to 1
CN(C)C(=O)C[C@H]1CCc2c(OC[C@H]3CCCN3c3ncnc4[nH]cnc34)cccc2C1=O [A175, N,N-Dimethyl-2-{(R)-1-oxo-5-[(R)-1-(9H-purin-6-yl)pyrrolidin-2-ylmethoxy]-1,2,3,4-tetrahydro-naphthalen-2-yl}acetamide]	0.01 to 1
CCNC(=O)CC1CCc2c(OC[C@H]3CCCN3c3ncnc4[nH]cnc34)cccc2C1=O (stereo partly drawn) [A176, N-Ethyl-2-{1-oxo-5-[(R)-1-(9H-purin-6-yl)-pyrrolidin-2-ylmethoxy]-1,2,3,4-tetrahydro-naphthalen-2-yl}acetamide]	0.01 to 1
NC(=O)C[C@@H](N)C(=O)Nc1ccc2cccc(OC[C@H]3CCCN3c3ncnc4[nH]cnc34)c2c1 [A177, (R)-2-Amino-N1-{8-[(R)-1-(9H-purin-6-yl)-pyrrolidin-2-ylmethoxy]naphthalen-2-yl}succinamide]	1 to 10
c1ccc2c(NCCCN3CCOCC3)ncc(OC[C@H]3CCCN3c3ncnc4[nH]cnc34)c2c1 [A178, (3-Morpholin-4-ylpropyl)-{4-[(R)-1-(9H-purin-6-yl)pyrrolidin-2-ylmethoxy]isoquinolin-1-yl}amine]	1 to 10
CNC(=O)CC1CCc2c(OC[C@H]3CCCN3c3ncnc4[nH]cnc34)cccc2C1=O (stereo partly drawn) [A179, N-Methyl-2-{1-oxo-5-[(R)-1-(9H-purin-6-yl)-pyrrolidin-2-ylmethoxy]-1,2,3,4-tetrahydro-naphthalen-2-yl}acetamide]	0.01 to 1
